Test results taken from patent US6936585B2, “Corticotropin releasing factor 2 receptor agonists” (priority 2002, dated 2005).
Ends that are not written are not given here. Peptide text beside a SMILES is read from it.

Tests used:
CRF1R = target: T1, CRF1R (Homo sapiens, UniProt P34998); assay: CRF1R agonist activation (EC50 / Emax), called comparative CRF binding; type: cell-based; conditions: for Emax: read-out: CRF1R Emax; for EC50: read-out: CRF1R EC50
T1 sequence (P34998 24-415): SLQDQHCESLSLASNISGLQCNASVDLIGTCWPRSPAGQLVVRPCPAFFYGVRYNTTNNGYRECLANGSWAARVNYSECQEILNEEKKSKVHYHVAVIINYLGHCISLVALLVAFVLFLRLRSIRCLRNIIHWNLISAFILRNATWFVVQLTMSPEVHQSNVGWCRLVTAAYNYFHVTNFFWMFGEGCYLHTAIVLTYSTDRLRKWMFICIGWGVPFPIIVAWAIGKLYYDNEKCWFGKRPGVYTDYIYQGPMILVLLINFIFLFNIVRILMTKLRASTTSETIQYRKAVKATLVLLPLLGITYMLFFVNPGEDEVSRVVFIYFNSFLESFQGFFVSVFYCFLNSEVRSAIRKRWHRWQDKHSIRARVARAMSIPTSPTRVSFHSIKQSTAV
Procedure, shortened: (§1)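 Read-out is Gαs-driven cAMP induction, quantified directly in lysates or through CRE-reporter gene expression, after treating CRF1R- or CRF2R-expressing cells with peptide. Vehicle-treated cells serve as the comparison.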

CRF2R = target: T2, CRF2R (Homo sapiens, UniProt Q13324); assay: CRF2R agonist activation (EC50 / Emax), called comparative CRF binding; type: cell-based; conditions: for Emax: read-out: CRF2R Emax; for EC50: read-out: CRF2R EC50
T2 sequence (Q13324 1-411): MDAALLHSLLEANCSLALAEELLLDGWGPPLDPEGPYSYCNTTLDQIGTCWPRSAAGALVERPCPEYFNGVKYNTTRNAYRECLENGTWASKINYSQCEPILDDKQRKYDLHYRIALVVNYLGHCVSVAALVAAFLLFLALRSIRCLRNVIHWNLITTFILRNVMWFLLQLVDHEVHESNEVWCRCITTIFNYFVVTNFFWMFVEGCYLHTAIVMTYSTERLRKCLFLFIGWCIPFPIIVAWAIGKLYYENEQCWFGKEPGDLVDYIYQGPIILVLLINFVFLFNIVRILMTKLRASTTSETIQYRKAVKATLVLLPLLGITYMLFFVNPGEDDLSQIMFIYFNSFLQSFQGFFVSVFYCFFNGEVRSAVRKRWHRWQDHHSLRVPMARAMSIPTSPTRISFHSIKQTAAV
Procedure, shortened: as §1

Compound | Emax (CRF1R) | Emax (CRF2R) | EC50 (CRF1R) | EC50 (CRF2R)
CC[C@H](C)[C@H](NC(=O)[C@H](C)NC(=O)[C@H](CC(N)=O)NC(=O)[C@H](CCC(N)=O)NC(=O)[C@H](CCC(=O)O)NC(=O)[C@H](C)NC(=O)[C@H](CCCNC(=N)N)NC(=O)[C@H](CCC(=O)O)NC(=O)[C@H](CCCNC(=N)N)NC(=O)[C@H](CCC(N)=O)NC(=O)[C@H](CO)NC(=O)[C@H](CCC(N)=O)NC(=O)[C@@H](NC(=O)[C@H](CCCNC(=N)N)NC(=O)[C@H](C)NC(=O)[C@H](CC(C)C)NC(=O)[C@H](CCC(=O)O)NC(=O)[C@H](CC(C)C)NC(=O)[C@H](CC(C)C)NC(=O)[C@@H](NC(=O)[C@H](CCCNC(=N)N)NC(=O)[C@H](CC(C)C)NC(=O)[C@H](CC(C)C)NC(=O)[C@H](Cc1ccc(O)cc1)NC(=O)[C@H](Cc1ccccc1)NC(=O)[C@@H]1CCCN1C(=O)[C@H](CC(C)C)NC(=O)[C@H](CC(=O)O)NC(=O)[C@@H](NC(=O)[C@H](CO)NC(=O)[C@H](CC(C)C)NC(=O)[C@H](CO)NC(=O)[C@@H]1CCCN1C(=O)[C@H](CC(N)=O)NC(=O)[C@@H](N)CC(=O)O)[C@@H](C)CC)[C@@H](C)O)[C@@H](C)O)C(=O)N[C@H](C(=O)N[C@@H](Cc1ccccc1)C(=O)N[C@@H](C)C(=O)N[C@@H](CO)C(=O)N[C@H](C(N)=O)C(C)C)[C@@H](C)CC [compound 183] (H-DNPSLSIDLPFYLLRTLLELARTQSQRERAEQNAIIFASV-NH2; N-terminus assumed) | 57.5% | 100% |  | 
CC[C@H](C)[C@H](NC(=O)[C@H](CCCNC(=N)N)NC(=O)[C@H](C)NC(=O)[C@H](CC(N)=O)NC(=O)[C@H](CCC(N)=O)NC(=O)[C@H](CCC(=O)O)NC(=O)[C@H](C)NC(=O)[C@H](CCCNC(=N)N)NC(=O)[C@H](CCC(=O)O)NC(=O)[C@H](CCCNC(=N)N)NC(=O)[C@H](CCC(N)=O)NC(=O)[C@H](CO)NC(=O)[C@H](CCC(N)=O)NC(=O)[C@@H](NC(=O)[C@H](CCCCN)NC(=O)[C@H](CCC(=O)O)NC(=O)[C@H](CC(C)C)NC(=O)[C@H](CCC(=O)O)NC(=O)[C@H](CC(C)C)NC(=O)[C@H](CC(C)C)NC(=O)[C@@H](NC(=O)[C@H](CCCNC(=N)N)NC(=O)[C@H](CC(C)C)NC(=O)[C@H](CC(C)C)NC(=O)[C@H](CC(C)C)NC(=O)[C@H](CC(C)C)NC(=O)[C@@H]1CCCN1C(=O)[C@H](CC(C)C)NC(=O)[C@H](CC(=O)O)NC(=O)[C@@H](NC(=O)[C@H](CO)NC(=O)[C@H](CC(C)C)NC(=O)[C@H](CO)NC(=O)[C@@H]1CCCN1C(=O)[C@H](CC(N)=O)NC(=O)[C@@H](N)CC(=O)O)[C@@H](C)CC)[C@@H](C)O)[C@@H](C)O)C(=O)N[C@@H](Cc1ccccc1)C(=O)N[C@@H](C)C(=O)N[C@@H](CCCNC(=N)N)C(=O)N[C@H](C(N)=O)C(C)C [compound 341] (H-DNPSLSIDLPLLLLRTLLELEKTQSQRERAEQNARIFARV-NH2; N-terminus assumed) | 82.3% | 95.5% |  | 
SQEPPISLDLPIGLLREVLEMTKADQLAQQAHSNRKLLDIA-NH2 [compound 93] | 5% | 6.4% |  | 
CC[C@H](C)[C@H](NC(=O)[C@H](CCCNC(=N)N)NC(=O)[C@H](C)NC(=O)[C@H](CC(N)=O)NC(=O)[C@H](CCC(N)=O)NC(=O)[C@H](CCC(=O)O)NC(=O)[C@H](C)NC(=O)[C@H](CCCNC(=N)N)NC(=O)[C@H](CCC(=O)O)NC(=O)[C@H](CCCNC(=N)N)NC(=O)[C@H](CCC(N)=O)NC(=O)[C@H](CO)NC(=O)[C@H](CCC(N)=O)NC(=O)[C@@H](NC(=O)[C@H](CCCCN)NC(=O)[C@H](CCC(=O)O)NC(=O)[C@H](CC(C)C)NC(=O)[C@H](CCC(=O)O)NC(=O)[C@H](CC(C)C)NC(=O)[C@H](CC(C)C)NC(=O)[C@@H](NC(=O)[C@H](CCCNC(=N)N)NC(=O)[C@H](CC(C)C)NC(=O)[C@H](CC(C)C)NC(=O)[C@H](Cc1ccc(O)cc1)NC(=O)[C@H](CC(C)C)NC(=O)[C@@H]1CCCN1C(=O)[C@@H](NC(=O)[C@H](CC(=O)O)NC(=O)[C@@H](NC(=O)[C@H](CO)NC(=O)[C@H](CC(C)C)NC(=O)[C@H](CO)NC(=O)[C@@H]1CCCN1C(=O)[C@H](CC(N)=O)NC(=O)[C@@H](N)CC(=O)O)[C@@H](C)CC)C(C)C)[C@@H](C)O)[C@@H](C)O)C(=O)N[C@@H](Cc1ccccc1)C(=O)N[C@@H](C)C(=O)N[C@@H](CCCNC(=N)N)C(=O)N[C@H](C(N)=O)C(C)C [compound 387] (H-DNPSLSIDVPLYLLRTLLELEKTQSQRERAEQNARIFARV-NH2; N-terminus assumed) | 50.1% | 100% | ≥ 1000 nM | 17.8 nM
CC[C@H](C)[C@H](NC(=O)[C@H](CCCNC(=N)N)NC(=O)[C@H](C)NC(=O)[C@H](CC(N)=O)NC(=O)[C@H](CCC(N)=O)NC(=O)[C@H](CCC(=O)O)NC(=O)[C@H](C)NC(=O)[C@H](CCCNC(=N)N)NC(=O)[C@H](CCC(=O)O)NC(=O)[C@H](CCCNC(=N)N)NC(=O)[C@H](CCC(N)=O)NC(=O)[C@H](CO)NC(=O)[C@H](CCC(N)=O)NC(=O)[C@@H](NC(=O)[C@H](CCCNC(=N)N)NC(=O)[C@H](C)NC(=O)[C@H](CC(C)C)NC(=O)[C@H](CCC(=O)O)NC(=O)[C@H](CC(C)C)NC(=O)[C@H](CC(C)C)NC(=O)[C@@H](NC(=O)[C@H](CCCNC(=N)N)NC(=O)[C@H](CC(C)C)NC(=O)[C@H](CC(C)C)NC(=O)[C@@H](NC(=O)[C@H](CC(C)C)NC(=O)[C@@H]1CCCN1C(=O)[C@H](CC(C)C)NC(=O)[C@H](CC(=O)O)NC(=O)[C@@H](NC(=O)[C@H](CO)NC(=O)[C@H](CC(C)C)NC(=O)[C@H](CO)NC(=O)[C@@H]1CCCN1C(=O)[C@H](CC(N)=O)NC(=O)[C@@H](N)CC(=O)O)[C@@H](C)CC)[C@@H](C)CC)[C@@H](C)O)[C@@H](C)O)C(=O)N[C@@H](Cc1ccccc1)C(=O)N[C@@H](C)C(=O)N[C@@H](CCCNC(=N)N)C(=O)N[C@H](C(N)=O)C(C)C [compound 330] (H-DNPSLSIDLPLILLRTLLELARTQSQRERAEQNARIFARV-NH2; N-terminus assumed) | 86.8% | 93.7% | ≥ 1000 nM | 6 nM
CC[C@H](C)[C@H](NC(=O)[C@H](C)NC(=O)[C@H](CC(N)=O)NC(=O)[C@H](CCC(N)=O)NC(=O)[C@H](CCC(=O)O)NC(=O)[C@H](C)NC(=O)[C@H](CCCNC(=N)N)NC(=O)[C@H](CCC(=O)O)NC(=O)[C@H](CCCNC(=N)N)NC(=O)[C@H](CCC(N)=O)NC(=O)[C@H](CO)NC(=O)[C@H](CCC(N)=O)NC(=O)[C@@H](NC(=O)[C@H](CCCCN)NC(=O)[C@H](CCC(=O)O)NC(=O)[C@H](CC(C)C)NC(=O)[C@H](CCC(=O)O)NC(=O)[C@H](CC(C)C)NC(=O)[C@H](CC(C)C)NC(=O)[C@@H](NC(=O)[C@H](CCCNC(=N)N)NC(=O)[C@H](CC(C)C)NC(=O)[C@H](CC(C)C)NC(=O)[C@H](Cc1ccccc1)NC(=O)[C@H](CC(C)C)NC(=O)[C@@H]1CCCN1C(=O)[C@H](CC(C)C)NC(=O)[C@H](CC(=O)O)NC(=O)[C@@H](NC(=O)[C@H](CO)NC(=O)[C@H](CC(C)C)NC(=O)[C@H](CO)NC(=O)[C@@H]1CCCN1C(=O)[C@H](CC(N)=O)NC(=O)[C@@H](N)CC(=O)O)[C@@H](C)CC)[C@@H](C)O)[C@@H](C)O)C(=O)N[C@H](C(=O)N[C@@H](Cc1ccccc1)C(=O)N[C@@H](C)C(=O)N[C@@H](CO)C(=O)N[C@H](C(N)=O)C(C)C)[C@@H](C)CC [compound 343] (H-DNPSLSIDLPLFLLRTLLELEKTQSQRERAEQNAIIFASV-NH2; N-terminus assumed) | 62.5% | 96.5% |  | 
SQEPPISLDLPFELLREVLEMTKADQLAQQAHSNRKLLDIA-NH2 [compound 97] | 4.25% | 7.6% |  | 
NDDPPISIDLPFLLLRNMIEMARIENEREQAGLNAKYLAEV-NH2 [compound 260] | 89.7% | 89.3% | 834 nM | ≥ 100 nM
NDDPPISIDLPLILLRNMIEMARIENEREQAGLNAKYLAEV-NH2 [compound 269] | 44.3% | 77.3% |  | 
